Broadly, the AUC is the area under the concentration-time curve, a measure of exposure. One may read the half-life as the time needed for the level to fall by half in the phase considered. The term Vdss denotes a proportionality between amount in the body and measured concentration, not a real space. As a reminder, the Cmax is the maximum level reached in the sampled fluid or tissue. Usually inhibition stands for the share of the control response that was lost under treatment. In general, bioavailability refers to dose-corrected exposure relative to a reference, in per cent.

Calls of active or inactive are those of the source.

Series [1] has as its target T1, Peroxisome proliferator-activated receptor delta (Mus musculus) (UniProt P35396).
T1 sequence (whole entry): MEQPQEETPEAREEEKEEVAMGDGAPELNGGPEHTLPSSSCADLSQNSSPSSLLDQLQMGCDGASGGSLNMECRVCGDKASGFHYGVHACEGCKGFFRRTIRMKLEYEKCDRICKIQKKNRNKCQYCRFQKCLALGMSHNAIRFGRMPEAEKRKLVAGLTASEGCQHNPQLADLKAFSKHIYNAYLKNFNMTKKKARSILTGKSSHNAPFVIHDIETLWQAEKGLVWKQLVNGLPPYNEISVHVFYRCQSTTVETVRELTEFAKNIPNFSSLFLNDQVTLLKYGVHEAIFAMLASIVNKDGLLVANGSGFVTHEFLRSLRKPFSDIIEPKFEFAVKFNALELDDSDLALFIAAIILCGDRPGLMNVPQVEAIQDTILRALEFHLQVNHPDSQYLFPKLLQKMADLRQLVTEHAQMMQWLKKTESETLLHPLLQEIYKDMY
Briefly: Modulator activity at PPARdelta in […] primary myoblasts derived from DMD patient assessed as upregulation of ANGPTL4 gene expression at 0.4 nM measured after 48 hrs. It counts as tissue-based. The conditions noted are these: Primary myotube, filed as modulator.

Series [2] in a line: AUC in Wistar rat at 1 mg/kg, iv. In kind it is ADME, organism-based. Also noted: dose 1 mg/kg. The conditions noted are these: in vivo.
Series [3] is described as follows: Half life in Wistar rat at 3 mg/kg, po. The conditions noted are these: in vivo. In kind it is ADME, organism-based.
The nature of series [4]: Volume of distribution at steady state in cynomolgus monkey at 3 mg/kg, iv. It counts as ADME, organism-based, Macaca fascicularis. The conditions noted are these: in vivo.
Series [5] is described as follows: AUC in cynomolgus monkey at 10 mg/kg, po. In kind it is ADME, organism-based, Macaca fascicularis. Also noted: dose 10 mg/kg. The conditions noted are these: in vivo.
For the next series, the system named is Mus musculus. Put plainly: In vivo modulator activity at PPARdelta in C57BL/6JRccHsd mouse skeletal muscle assessed as increase in Pdk4 gene expression at 30 to 100 mg/kg, po administered for 9 days and measured at 2 hrs after final administration by qPCR analysis. In kind it is functional, organism-based. The conditions noted are these: dose 30-100 mg/kg, time 9.0 day.

A short description of series [6]: Cmax in Wistar rat at 3 mg/kg, po. The conditions noted are these: in vivo. More on the design: route oral, dose 3 mg/kg. It counts as ADME, organism-based.
The nature of series [7]: Mutagenicity in Salmonella typhimurium by mini Ames test. In kind it is toxicity. The conditions noted are these: salmonella enterica subsp. enterica serovar typhimurium. In general terms: The Ames test detects mutagens through reverse mutation in bacteria.
For the next series, the target named is CYP2C9 (Homo sapiens, UniProt P11712). Briefly: Inhibition of CYP2C9 (unknown origin) at 10 uM relative to control. It counts as ADME.
Chain of CYP2C9 (P11712 whole entry): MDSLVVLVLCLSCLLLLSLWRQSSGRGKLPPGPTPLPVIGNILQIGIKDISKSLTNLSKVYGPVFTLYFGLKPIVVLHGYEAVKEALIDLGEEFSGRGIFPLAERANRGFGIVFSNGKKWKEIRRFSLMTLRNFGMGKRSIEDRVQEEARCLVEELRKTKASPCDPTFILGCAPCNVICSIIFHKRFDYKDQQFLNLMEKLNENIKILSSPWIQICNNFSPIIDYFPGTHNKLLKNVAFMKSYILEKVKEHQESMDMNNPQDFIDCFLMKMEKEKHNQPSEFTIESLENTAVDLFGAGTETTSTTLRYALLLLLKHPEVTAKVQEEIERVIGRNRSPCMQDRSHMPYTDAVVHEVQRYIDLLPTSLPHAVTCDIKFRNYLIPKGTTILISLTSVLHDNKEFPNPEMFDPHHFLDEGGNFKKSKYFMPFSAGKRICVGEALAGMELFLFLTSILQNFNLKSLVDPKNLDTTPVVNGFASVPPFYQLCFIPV
Series [8] is described as follows: Cmax in CD-1 mouse at 3 mg/kg, po. More on the design: route oral, dose 3 mg/kg. In kind it is ADME, organism-based. The conditions noted are these: in vivo.
A short description of series [9]: Half life in cynomolgus monkey at 10 mg/kg, po. In kind it is ADME, organism-based, Macaca fascicularis. The conditions noted are these: in vivo.
A short description of series [10]: Half life in Wistar rat at 1 mg/kg, iv. It counts as ADME, organism-based. The conditions noted are these: in vivo.
Series [11] in a line: Oral bioavailability in cynomolgus monkey at 10 mg/kg. The conditions noted are these: in vivo. In kind it is ADME, organism-based, Macaca fascicularis.
A short description of series [12]: Oral bioavailability in Wistar rat at 3 mg/kg. It counts as ADME, organism-based. The conditions noted are these: in vivo.
The target in series [13] is T1, Peroxisome proliferator-activated receptor delta (Mus musculus). Briefly: Modulator activity at PPARdelta in […] primary myoblasts derived from DMD patient assessed as upregulation of ANGPTL4 gene expression at 0.04 nM measured after 48 hrs. It counts as tissue-based. The conditions noted are these: Primary myotube.
The nature of series [14]: AUC in CD-1 mouse at 1 mg/kg, iv. More on the design: dose 1 mg/kg. The conditions noted are these: in vivo. It counts as ADME, organism-based.

Consider `Cc1cnc(-c2ccc(OC(F)(F)F)cc2)n1Cc1ccccc1OCCC[C@@H](C)CC(=O)O`, for which the Activity in series [1] was 98%; in [7], “Non-Toxic”; in series [13] it was 36%. Further, the figures for the AUC in series [2], in series [5] and in series [14] were 1590 ng·h/mL, 3840 ng·h/mL and 503 ng·h/mL, respectively. Besides, the half-life in [3] is 4.6 h; in series [9] it was 7.3 h; in series [10], 6.1 h. The molecule also gave a Vdss in [4] of 3.2 L/kg. Moreover, the outcome in the series with Mus musculus was Active. Also, the Cmax amounted to 1090 ng/mL in [6] and 510 ng/mL in [8]. In addition, the inhibition at 10 µM against CYP2C9 amounted to 56%. The bioavailability in series [11] is 13%; in series [12], 90%.

(Values after ChEMBL document CHEMBL4715826, “Selective PPARδ Modulators Improve Mitochondrial Function: Potential Treatment for Duchenne Muscular Dystrophy (DMD)” (ACS Med Chem Lett, 2018).)
